pIC50: −log10 of the molar value.

The assay has as its target sigma receptor (Cavia porcellus). Put plainly: In vitro binding affinity measured on sigma opioid receptor using [3H]DTG as radioligand.
`COc1ccc2c(c1)C(SCCN1CCN(c3ccccc3OC)CC1)CCC2` (stereo unspecified) [1-(2-Methoxy-phenyl)-4-[2-(7-methoxy-1,2,3,4-tetrahydro-naphthalen-1-ylsulfanyl)-ethyl]-piperazine]: the pIC50 is 6.86.

In the case of `COc1ccc2c(c1)C(CCCN1CCN(c3ccccn3)CC1)CCC2` (stereo unspecified) [1-[3-(7-Methoxy-1,2,3,4-tetrahydro-naphthalen-1-yl)-propyl]-4-pyridin-2-yl-piperazine], the pIC50 was 6.90. To `COc1ccc2c(c1)C(CCCN1CCN(c3ccccc3OC)CC1)=CCC2` [1-[3-(7-Methoxy-3,4-dihydro-naphthalen-1-yl)-propyl]-4-(2-methoxy-phenyl)-piperazine] belongs 6.64; to `COc1ccc2c(c1)C(CCCN1CCN(c3ccccn3)CC1)=CCC2` [1-[3-(7-Methoxy-3,4-dihydro-naphthalen-1-yl)-propyl]-4-pyridin-2-yl-piperazine], 6.61; to `COc1ccccc1N1CCN(CC/C=C2\CCCc3ccccc32)CC1` [1-{3-[3,4-Dihydro-2H-naphthalen-(1E)-ylidene]-propyl}-4-(2-methoxy-phenyl)-piperazine], 7.26. To `COc1ccccc1N1CCN(CC/C=C2\CCCc3c(OC)cccc32)CC1` [1-{3-[5-Methoxy-3,4-dihydro-2H-naphthalen-(1E)-ylidene]-propyl}-4-(2-methoxy-phenyl)-piperazine] belongs 7.28.

By pIC50 is commonly meant the negative decadic logarithm of the IC50, by convention in mol/L. A lower pIC50 goes with a high IC50.

Source of the values: BindingDB's records for doi:10.1021/jm00006a013 (Universit&#224, 1995).
